Data on 27 molecules can be found in patent publication US11332459B2 (TEIJIN PHARMA LIMITED, priority 2017, dated 2022).

Structures can show the parent of a compound that is named as a salt.

This assay addresses T1, human TRPC6 (Homo sapiens, UniProt Q9Y210).
T1 construct: expressed in transfected cells
T1 sequence (Q9Y210 1-931): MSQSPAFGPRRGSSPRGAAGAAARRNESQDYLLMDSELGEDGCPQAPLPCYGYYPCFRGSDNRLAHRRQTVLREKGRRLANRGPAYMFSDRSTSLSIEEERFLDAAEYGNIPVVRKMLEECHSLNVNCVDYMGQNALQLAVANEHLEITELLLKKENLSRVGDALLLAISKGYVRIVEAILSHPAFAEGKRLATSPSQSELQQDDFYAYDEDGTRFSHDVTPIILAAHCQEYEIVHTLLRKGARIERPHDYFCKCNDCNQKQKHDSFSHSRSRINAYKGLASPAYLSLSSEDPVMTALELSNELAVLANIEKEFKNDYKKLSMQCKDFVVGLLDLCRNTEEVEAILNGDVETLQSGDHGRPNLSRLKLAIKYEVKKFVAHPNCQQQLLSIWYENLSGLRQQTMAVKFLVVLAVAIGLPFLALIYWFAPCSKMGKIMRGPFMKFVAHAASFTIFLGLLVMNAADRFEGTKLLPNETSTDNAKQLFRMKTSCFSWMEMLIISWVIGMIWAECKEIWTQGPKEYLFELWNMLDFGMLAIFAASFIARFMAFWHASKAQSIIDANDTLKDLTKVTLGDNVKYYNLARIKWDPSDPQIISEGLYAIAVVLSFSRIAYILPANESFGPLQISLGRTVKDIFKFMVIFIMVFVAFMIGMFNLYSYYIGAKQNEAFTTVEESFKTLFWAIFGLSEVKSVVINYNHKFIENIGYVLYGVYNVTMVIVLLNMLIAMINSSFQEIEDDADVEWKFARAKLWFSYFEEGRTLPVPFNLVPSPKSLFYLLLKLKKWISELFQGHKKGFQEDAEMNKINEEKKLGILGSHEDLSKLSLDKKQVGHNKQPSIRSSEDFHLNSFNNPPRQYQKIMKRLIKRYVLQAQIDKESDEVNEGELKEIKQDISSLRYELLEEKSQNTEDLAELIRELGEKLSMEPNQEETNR
Kind of assay: TRPC6 calcium flux assay (FLIPR, OAG-stimulated calcium influx). The class given is cell-based. Particulars: HEK293 cells stably transfected with human TRPC6, read-out: hTRPC6 Potency. In short, it runs like this: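 HEK293 cells stably expressing human TRPC6, loaded with calcium dye 90–120 min at RT, then given compound for 25 min before OAG (50 uM final, 0.5% DMSO) in HEPES buffer pH 7.2 with 2 mM CaCl2. Background-subtracted FLIPR peak over 180 s normalized to OAG vs buffer; IC50 from dose plot.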
(A change in cytosolic calcium serves as a functional read-out for many receptors and channels.)
Turning to `N#Cc1ccc(Cn2c(N3CC[C@@H](F)[C@H](N)C3)nc3ccc(OC(F)F)cc32)nc1` [Example 118, 6-((2-((3R,4R)-3-amino-4-fluoro-1-piperidinyl)-6-(difluoromethoxy)-1H-benzimidazol-1-yl)methyl)-3-pyridinecarbonitrile], the IC50 was determined as 0.855 nM.

On to `N#Cc1ccc(Cn2c(N3CC[C@@H](F)[C@H](N)C3)nc3cc(OC(F)F)ccc32)nc1` [Example 119, 6-((2-((3R,4R)-3-amino-4-fluoro-1-piperidinyl)-5-(difluoromethoxy)-1H-benzimidazol-1-yl)methyl)-3-pyridinecarbonitrile], for which the IC50 worked out at 1.94 nM.

As to `COc1cccc2c1nc(N1CC[C@@H](F)[C@H](N)C1)n2Cc1ccc(C#N)cn1` [Example 120, 6-((2-((3R,4R)-3-amino-4-fluoro-1-piperidinyl)-4-methoxy-1H-benzimidazol-1-yl)methyl)-3-pyridinecarbonitrile], the IC50 was 3.21 nM.

For the molecule `Cc1cccc2c1nc(N1CC[C@@H](F)[C@H](N)C1)n2Cc1ccc(C#N)cn1` [Example 121, 6-((2-((3R,4R)-3-amino-4-fluoro-1-piperidinyl)-4-methyl-1H-benzimidazol-1-yl)methyl)-3-pyridinecarbonitrile], the IC50 amounted to 5.59 nM.

Consider `NC(=O)c1cnc(Cn2c(N3CC[C@H](F)[C@H](N)C3)nc3ccc(C(F)(F)F)cc32)cn1` [Example 122, 5-((2-((3R,4S)-3-amino-4-fluoro-1-piperidinyl)-6-(trifluoromethyl)-1H-benzimidazol-1-yl)methyl)-2-pyrazinecarboxamide], for which the IC50 was determined as 29.9 nM.

As to `NC(=O)c1cnc(Cn2c(N3CC[C@H](F)[C@H](N)C3)nc3cc(C(F)(F)F)ccc32)cn1` [Example 123, 5-((2-((3R,4S)-3-amino-4-fluoro-1-piperidinyl)-5-(trifluoromethyl)-1H-benzimidazol-1-yl)methyl)-2-pyrazinecarboxamide], the IC50 amounted to 252 nM.

Regarding `N#Cc1ccc(Cn2c(N3CC[C@@H](F)[C@H](N)C3)nc3cc(OC(F)(F)F)c(Cl)cc32)nc1` [Example 124, 6-((2-((3R,4R)-3-amino-4-fluoro-1-piperidinyl)-6-chloro-5-(trifluoromethoxy)-1H-benzimidazol-1-yl)methyl)-3-pyridinecarbonitrile], the IC50 worked out at 0.741 nM.

`N#Cc1ccc(Cn2c(N3CC[C@@H](F)[C@H](N)C3)nc3cc(Cl)c(OC(F)(F)F)cc32)nc1` [Example 125, 6-((2-((3R,4R)-3-amino-4-fluoro-1-piperidinyl)-5-chloro-6-(trifluoromethoxy)-1H-benzimidazol-1-yl)methyl)-3-pyridinecarbonitrile]: the IC50 is 0.389 nM.

Turning to `N#Cc1ccc(Cn2c(N3CC[C@@H](F)[C@H](N)C3)nc3cc(C(F)(F)F)c(Cl)cc32)nc1` [Example 126, 6-((2-((3R,4R)-3-amino-4-fluoro-1-piperidinyl)-6-chloro-5-(trifluoromethyl)-1H-benzimidazol-1-yl)methyl)-3-pyridinecarbonitrile], the IC50 came out at 0.48 nM.

As for `N#Cc1ccc(Cn2c(N3CC[C@@H](F)[C@H](N)C3)nc3cc(Cl)c(C(F)(F)F)cc32)nc1` [Example 127, 6-((2-((3R,4R)-3-amino-4-fluoro-1-piperidinyl)-5-chloro-6-(trifluoromethyl)-1H-benzimidazol-1-yl)methyl)-3-pyridinecarbonitrile], the IC50 turned out to be 0.492 nM.

Turning to `N#Cc1ccc(Cn2c(N3CCC[C@]4(CCCCN4)C3)nc3ccccc32)nc1` [Example 129, 6-((2-((6R)-1,8-diazaspiro[5.5]undecan-8-yl)-1H-benzimidazol-1-yl)methyl)-3-pyridinecarbonitrile], the IC50 was above 3750 nM.

On to `N#Cc1ccc(Cn2c(N3CCC[C@@]4(CCCCN4)C3)nc3ccccc32)nc1` [Example 130, 6-((2-((6S)-1,8-diazaspiro[5.5]undecan-8-yl)-1H-benzimidazol-1-yl)methyl)-3-pyridinecarbonitrile], for which the IC50 was found to be 269 nM.

On to `N#Cc1ccc(Cn2c(N3CC[C@H]4OCCN[C@@H]4C3)nc3ccccc32)nc1` [Example 131, 6-((2-((4aR,8aR)-hexahydro-2H-pyrido[4,3-b][1,4]oxazin-6(5H)-yl)-1H-benzimidazol-1-yl)methyl)-3-pyridinecarbonitrile], for which the IC50 is 82.6 nM.

With `N#Cc1ccc(Cn2c(N3CC[C@@H]4OCCN[C@H]4C3)nc3ccccc32)nc1` [Example 132, 6-((2-((4aS,8aS)-hexahydro-2H-pyrido[4,3-b][1,4]oxazin-6(5H)-yl)-1H-benzimidazol-1-yl)methyl)-3-pyridinecarbonitrile], the IC50 was determined as 42 nM.

`NC(=O)c1cnc(Cn2c(N3CC[C@@H](F)[C@H](N)C3)nc3cc(F)c(F)cc32)cn1` [Example 133, 5-((2-((3R,4R)-3-amino-4-fluoro-1-piperidinyl)-5,6-difluoro-1H-benzimidazol-1-yl)methyl)-2-pyrazinecarboxamide]: the IC50 stood at 6.98 nM.

For the molecule `NC(=O)c1cnc(Cn2c(N3CC[C@@H](F)[C@H](N)C3)nc3ccc(C(F)(F)F)cc32)cn1` [Example 134, 5-((2-((3R,4R)-3-amino-4-fluoro-1-piperidinyl)-6-(trifluoromethyl)-1H-benzimidazol-1-yl)methyl)-2-pyrazinecarboxamide], the IC50 is 4.71 nM.

For `N#Cc1ccc(Cn2c(N3CCC[C@]4(CCCN4)C3)nc3ccccc32)nc1` [Example 135, 6-((2-((5R)-1,7-diazaspiro[4.5]decan-7-yl)-1H-benzimidazol-1-yl)methyl)-3-pyridinecarbonitrile], the IC50 is above 3750 nM.

With `N#Cc1ccc(Cn2c(N3CCC[C@@]4(CCCN4)C3)nc3ccccc32)nc1` [Example 136, 6-((2-((5S)-1,7-diazaspiro[4.5]decan-7-yl)-1H-benzimidazol-1-yl)methyl)-3-pyridinecarbonitrile], the IC50 is 13.9 nM.

Consider `COc1ccc2c(c1)nc(N1CCC(F)(F)[C@H](N)C1)n2Cc1ccc(C#N)cn1` [Example 137, 6-((2-((3R)-3-amino-4,4-difluoro-1-piperidinyl)-5-methoxy-1H-benzimidazol-1-yl)methyl)-3-pyridinecarbonitrile], for which the IC50 was 36.2 nM.

With `COc1ccc2nc(N3CCC(F)(F)[C@H](N)C3)n(Cc3ccc(C#N)cn3)c2c1` [Example 138, 6-((2-((3R)-3-amino-4,4-difluoro-1-piperidinyl)-6-methoxy-1H-benzimidazol-1-yl)methyl)-3-pyridinecarbonitrile], the IC50 turned out to be 0.52 nM.

Regarding `CN[C@H]1CCCN(c2nc3ccc(C(F)(F)F)cc3n2Cc2ccc(C#N)cn2)C1` [Example 139, 6-((2-((3S)-3-(methylamino)-1-piperidinyl)-6-(trifluoromethyl)-1H-benzimidazol-1-yl)methyl)-3-pyridinecarbonitrile], the IC50 is 1.91 nM.

For `CN[C@H]1CCCN(c2nc3cc(C(F)(F)F)ccc3n2Cc2ccc(C#N)cn2)C1` [Example 140, 6-((2-((3S)-3-(methylamino)-1-piperidinyl)-5-(trifluoromethyl)-1H-benzimidazol-1-yl)methyl)-3-pyridinecarbonitrile], the IC50 was found to be 132 nM.

`C[C@]1(N)CCCN(c2nc3ccccc3n2Cc2ccc(C#N)cn2)C1` [Example 141, 6-((2-((3S)-3-amino-3-methyl-1-piperidinyl)-1H-benzimidazol-1-yl)methyl)-3-pyridinecarbonitrile]: the IC50 was 13.5 nM.

On to `COc1ccc2nc(N3CCC[C@H](N)C3)n(Cc3ccc(C#N)cn3)c2c1` [Example 142, (S)-6-((2-(3-aminopiperidin-1-yl)-6-methoxy-1H-benzo[d]imidazol-1-yl)methyl)nicotinonitrile 2,2,2-trifluoroacetate], for which the IC50 was 13.8 nM.

On to `COc1ccc2c(c1)nc(N1CCC[C@H](N)C1)n2Cc1ccc(C#N)cn1` [Example 143, (S)-6-((2-(3-aminopiperidin-1-yl)-5-methoxy-1H-benzo[d]imidazol-1-yl)methyl)nicotinonitrile 2,2,2-trifluoroacetate], for which the IC50 was 6.86 nM.

On to `N#Cc1ccc(Cn2c(N3CC[C@@H](F)[C@H](N)C3)nc3c(Cl)cc(F)cc32)nc1` [Example 144, 6-((2-((3R,4R)-3-amino-4-fluoropiperidin-1-yl)-4-chloro-6-fluoro-1H-benzo[d]imidazol-1-yl)methyl)nicotinonitrile 2,2,2-trifluoroacetate], for which the IC50 was 0.462 nM.

With `COc1ccc2c(c1)nc(N1CC[C@@H](F)[C@H](N)C1)n2Cc1ccc(C#N)cn1` [Example 145, 6-((2-((3R,4R)-3-amino-4-fluoropiperidin-1-yl)-5-methoxy-1H-benzo[d]imidazol-1-yl)methyl)nicotinonitrile hydrochloride], the IC50 was found to be 14 nM.
